Data published in ChEMBL document CHEMBL1156551, “Chlorohydroaspyrones A and B, antibacterial aspyrone derivatives from the marine-derived fungus Exophiala sp” (2008).
Values after ≈ are worked out from the molar mass of the structure shown.

Columns and labels:
Type in all cases: functional
Staphylococcus aureus [1] = experiment: Antibacterial activity against methicillin-resistant Staphylococcus aureus after 18 hrs by conventional 2 fold serial dilution method
Staphylococcus aureus [2] = experiment: Antibacterial activity against Staphylococcus aureus after 18 hrs by conventional 2 fold serial dilution method
Staphylococcus aureus [3] = experiment: Antibacterial activity against multidrug-resistant Staphylococcus aureus after 18 hrs by conventional 2 fold serial dilution method

Structure (SMILES) | MIC (Staphylococcus aureus [1]) | MIC (Staphylococcus aureus [2]) | MIC (Staphylococcus aureus [3])
C[C@H](O)[C@H](Cl)C1=C[C@H](O)[C@@H](C)OC1=O [CHLOROHYDROASPYRONE A] | 125 µg/mL (≈ 567 µM) | 62.5 µg/mL (≈ 283 µM) | 125 µg/mL (≈ 567 µM)
C[C@H](Cl)[C@@H](O)C1=C[C@H](O)[C@@H](C)OC1=O [CHLOROHYDROASPYRONE B] | 62.5 µg/mL (≈ 283 µM) | 62.5 µg/mL (≈ 283 µM) | 125 µg/mL (≈ 567 µM)
